For this test, the system named is E12 mesencephalic precursor cultures. Briefly: Dopaminergic / neuronal subtype differentiation of expanded mesencephalic precursor cultures (TH+ cell counts by immunohistochemistry). The following applies: under both oxygen conditions. Format: cell-based, rat. From the text:
Culture of CNS Stem Cells. Animals were housed and treated following NIH guidelines. Cells dissected from rat embryonic lateral ganglionic eminence (E14) or mesencephalon (E12) were mechanically dissociated, plated on plastic 24-well plates (Costar) or 12 mm glass cover slips (Carolina Biologicals) precoated with polyornithine/fibronectin, and grown in defined medium with bFGF (Studer et al., 1998; Johe et al., 1996). In general, bFGF was withdrawn from the medium after 4-6 days of culture. Clonal assays were carried out in plastic 48-well plates (Costar). In some studies, recombinant human (rh)EPO, rhVEGF165 or recombinant mouse (rm)FGF8b, or their neutralizing antibodies (all from R&D Systems) were added to cultures at the following concentrations: EPO 0.5 U/ml, EPO neutralizing antibody 10 μg/ml, FGF8 250 ng/ml, FGF8b neutralizing antibody 5 μg/ml, VEGF 50 ng/ml, VEGF neutralizing antibody 0.5 μg/ml. […]
Immunohistochemistry. […] Appropriate fluorescence-tagged (Jackson Immunoresearch) or biotinylated (Vector Laboratories) secondary antibodies followed by metal-enhanced DAB reaction (Pierce) were used for visualization.
Cell Counts and Statistical Procedures. Uniform random sampling procedures were used for cell counts and quantified using the fractionator technique (Gundersen, et al., 1988). […] Data are expressed as mean±SEM.

Consider 1 substance from US6610540B1, “Low oxygen culturing of central nervous system progenitor cells” (California Institute of Technology, priority 1998, dated 2003).

Consider sonic hedgehog, for which the “effect on expanded mesencephalic precursors (dopaminergic neuron differentiation)” value is recorded as “no effect”.
